ChEMBL document CHEMBL5500423, “More than an Amide Bioisostere: Discovery of 1,2,4-Triazole-containing Pyrazolo[1,5-a]pyrimidine Host CSNK2 Inhibitors for Combatting β-Coronavirus Replication” (J Med Chem, 2024)

What was measured:
Murine hepatitis virus = assay: Antiviral activity against Murine hepatitis virus infected in mouse DBT cells preincubated with cells for 1 hrs followed by viral infection and measured after 10 hrs by luminometer; assay type: functional, organism-based; conditions: Murine coronavirus
[1] = molecular target: Casein kinase II subunit alpha' (Homo sapiens, UniProt P19784); assay: Inhibition of NLuc-fused CSNK2A2 (unknown origin) expressed in HEK293 cells incubated for 2 hrs by NanoBRET assay; assay type: cell-based
Casein kinase II subunit alpha', sequence (P19784 whole entry, the tested form may be a part): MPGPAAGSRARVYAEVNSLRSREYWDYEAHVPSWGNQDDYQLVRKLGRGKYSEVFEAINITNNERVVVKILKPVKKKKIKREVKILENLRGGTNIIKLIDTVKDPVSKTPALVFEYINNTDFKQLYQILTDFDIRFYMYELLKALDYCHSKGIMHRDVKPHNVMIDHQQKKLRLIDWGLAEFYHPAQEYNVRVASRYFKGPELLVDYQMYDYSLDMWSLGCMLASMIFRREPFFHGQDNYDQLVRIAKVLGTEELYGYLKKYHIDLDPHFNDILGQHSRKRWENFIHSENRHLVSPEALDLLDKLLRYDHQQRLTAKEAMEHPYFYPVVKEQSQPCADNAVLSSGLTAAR

[2] = Kinetic solubility of compound in PBS at pH 7.4 incubated for 24 hrs by HPLC analysis; assay type: physicochemical; conditions: buffer, pH 7.4, 24 h

IC50 (Murine hepatitis virus) [nM]	IC50 [1] [nM]	Kinetic_solubility [2] [µg/mL]	Structure (SMILES)
7940	398	–	CC(C)(O)Cc1cccc(Nc2cc(NC3CC3)n3ncc(C#N)c3n2)c1
5010	> 10000	–	N#Cc1cnn2c(NCC3CCOC3)cc(Nc3cccc(-n4cnnc4)c3)nc12 (stereo not drawn)
> 10000	3980	–	N#Cc1cnn2c(NC3CC3)cc(Nc3cccc(Cn4cnnc4)c3)nc12
7940	631	–	CP(C)(=O)Cc1cccc(Nc2cc(NC3CC3)n3ncc(C#N)c3n2)c1
631	39.8	–	Cc1nncn1-c1cccc(Nc2cc(NC3CC3)n3ncc(C#N)c3n2)c1
> 10000	79.4	2.1	CNCCn1ccc(Nc2cc(Nc3cccc(-n4cnnc4)c3)nc3c(C#N)cnn23)n1
126	–	1.1	N#Cc1cnn2c(NC3CC3)cc(Nc3ccc(N4CCOCC4)c(-n4cnnc4)c3)nc12
398	39.8	–	C[S+]([O-])Cc1cccc(Nc2cc(NC3CC3)n3ncc(C#N)c3n2)c1 (stereo not drawn)
2510	251	44	N#Cc1cnn2c(NC3CC3)cc(Nc3ccc(N4CC[C@@H](N)C4)c(-n4cnnc4)c3)nc12
> 10000	> 10000	–	N#Cc1cnn2c(NC3CC3)cc(Nc3cccc(-c4cnccn4)c3)nc12
7940	631	–	N#Cc1cnn2c(NC3CC3)cc(Nc3cccc(CCO)c3)nc12
5010	158	0.2	CN1CCN(c2ccc(Nc3cc(NC4CC4)n4ncc(C#N)c4n3)cc2-n2cnnc2)CC1
2510	794	–	N#Cc1cnn2c(NC3CC3)cc(Nc3cccc(-c4nccs4)c3)nc12
> 10000	5.01	–	N#Cc1cnn2c(NC3CC3)cc(Nc3cccc(-n4cnnn4)c3)nc12
> 10000	50.1	–	N#Cc1cnn2c(NC3CC3)cc(Nc3cccc(-c4ncns4)c3)nc12
> 10000	501	30	CN(C)CCn1cnc(Nc2cc(Nc3cccc(-n4cnnc4)c3)nc3c(C#N)cnn23)c1
> 10000	> 10000	–	N#Cc1cnn2c(NCCO)cc(Nc3cccc(-n4cnnc4)c3)nc12
1580	501	39	CCN(CCN)c1cc(F)c(Nc2cc(NC3CC3)n3ncc(C#N)c3n2)cc1-n1cnnc1
10000	631	–	N#Cc1cnn2c(NC3CC3)cc(Nc3cccc(-c4nnco4)c3)nc12
2000	251	37	N#Cc1cnn2c(NC3CC3)cc(Nc3cc(-n4cnnc4)c(N4CC[C@H](N)C4)cc3F)nc12
158	–	2.8	CC(=O)Nc1cccc(Nc2cc(NC3CC3)n3ncc(C#N)c3n2)c1
1000	126	16	CNCCN(C)c1ccc(Nc2cc(NC3CC3)n3ncc(C#N)c3n2)cc1-n1cnnc1
794	126	–	CS(=O)(=O)Nc1cccc(Nc2cc(NC3CC3)n3ncc(C#N)c3n2)c1
> 10000	251	–	N#Cc1cnn2c(NC3COC3)cc(Nc3cccc(-n4cnnc4)c3)nc12
> 10000	> 10000	–	N#Cc1cnn2c(NCC3CCOCC3)cc(Nc3cccc(-n4cnnc4)c3)nc12
2510	1000	41	CN(CCN)c1cc(F)c(Nc2cc(NC3CC3)n3ncc(C#N)c3n2)cc1-n1cnnc1
> 10000	> 10000	–	CC(=O)N1CCC(Nc2cc(Nc3cccc(-n4cnnc4)c3)nc3c(C#N)cnn23)CC1

IC50 (Murine hepatitis virus) [nM]	IC50 [1] [nM]	Kinetic_solubility [2] [µg/mL]	Structure (SMILES)
1580	158	–	CN[C@@H]1CCCN(c2cc(F)c(Nc3cc(NC4CC4)n4ncc(C#N)c4n3)cc2-n2cnnc2)C1
> 10000	794	–	CC(C)(C#N)c1cccc(Nc2cc(NC3CC3)n3ncc(C#N)c3n2)c1
> 10000	5010	–	N#Cc1cnn2c(NC3CC3)cc(Nc3cccc(-c4ccccn4)c3)nc12
1000	79.4	4	N#Cc1cnn2c(Nc3ccn(CCN4CCOCC4)n3)cc(Nc3cccc(-n4cnnc4)c3)nc12
> 10000	200	–	N#Cc1cnn2c(NC3CC3)cc(Nc3cccc(-n4ncnn4)c3)nc12
3160	501	–	N#Cc1cnn2c(NC3CC3)cc(Nc3cccc(-n4ccnn4)c3)nc12
2510	63.1	2.6	CN(CCO)c1cc(F)c(Nc2cc(NC3CC3)n3ncc(C#N)c3n2)cc1-n1cnnc1
631	79.4	25	CN(CCN1CCOCC1)c1ccc(Nc2cc(NC3CC3)n3ncc(C#N)c3n2)cc1-n1cnnc1
> 10000	31.6	–	Cc1nccn1-c1cccc(Nc2cc(NC3CC3)n3ncc(C#N)c3n2)c1
2510	> 10000	–	N#Cc1cnn2c(NC3CC3)cc(Nc3cccc(-c4nn[nH]n4)c3)nc12
> 10000	> 10000	–	N#Cc1cnn2c(NC3CC3)cc(Nc3cccc(C(=O)O)c3)nc12
3160	794	63	CN[C@@H]1CCCN(c2ccc(Nc3cc(NC4CC4)n4ncc(C#N)c4n3)cc2-n2cnnc2)C1
> 10000	> 10000	–	Cn1cc(CNc2cc(Nc3cccc(-n4cnnc4)c3)nc3c(C#N)cnn23)cn1
7940	631	–	CCNCCN(C)c1ccc(Nc2cc(NC3CC3)n3ncc(C#N)c3n2)cc1-n1cnnc1
> 10000	200	37	N#Cc1cnn2c(Nc3cn(CCN4CCCC4)cn3)cc(Nc3cccc(-n4cnnc4)c3)nc12
> 10000	398	–	N#Cc1cnn2c(NC3CC(F)(F)C3)cc(Nc3cccc(-n4cnnc4)c3)nc12
> 10000	> 10000	–	N#Cc1cnn2c(NC3CC3)cc(Nc3cccc(-n4cc[nH]c4=O)c3)nc12
≥ 10000	–	–	CS(=N)(=O)Cc1cccc(Nc2cc(NC3CC3)n3ncc(C#N)c3n2)c1 (stereo not drawn)
> 10000	1580	8.4	CNCCn1cnc(Nc2cc(Nc3cccc(-n4cnnc4)c3)nc3c(C#N)cnn23)c1
10000	50.1	–	CN(CCN1CCCC1)c1ccc(Nc2cc(NC3CC3)n3ncc(C#N)c3n2)cc1-n1cnnc1
> 10000	5010	4.2	N#Cc1cnn2c(Nc3cn(CCN4CCOCC4)cn3)cc(Nc3cccc(-n4cnnc4)c3)nc12
1580	25.1	35	N#Cc1cnn2c(Nc3ccn(CCN4CCCC4)n3)cc(Nc3cccc(-n4cnnc4)c3)nc12
> 10000	> 10000	–	Cn1cnnc1-c1cccc(Nc2cc(NC3CC3)n3ncc(C#N)c3n2)c1
158	50.1	–	CS(=O)(=O)Cc1cccc(Nc2cc(NC3CC3)n3ncc(C#N)c3n2)c1
5010	31.6	21	CN(C)CCn1ccc(Nc2cc(Nc3cccc(-n4cnnc4)c3)nc3c(C#N)cnn23)n1
794	79.4	3.1	Cn1cnc(Nc2cc(Nc3cccc(-n4cnnc4)c3)nc3c(C#N)cnn23)c1
